IC50 data for 19 compounds are collected here from patent publication US11787810B2, “Diacylglyceride O-acyltransferase 2 inhibitors” (Merck Sharp & Dohme Corp., priority 2020, dated 2023).

The target in the first test is human DGAT2 (hDGAT2) (Homo sapiens (Human), UniProt Q96PD7). As to the kind of experiment: DGAT2 enzymatic activity assay (13C18-triolein formation, LC/MS/MS). Format: biochemical. To be noted: hDGAT2 Sf-9 membrane prep, 25 μM diolein, 5 μM 13C oleoyl-CoA; read-out: Human DGAT2 IC50. As to the method: Sf-9 insect cells were maintained in Grace's insect cell culture medium with 10% heated-inactivated fetal bovine serum, 1% Pluronic F-68 and 0.14 μg/ml Kanamycine sulfate at 27° C. in a shaker incubator. After infection with untagged baculovirus expressing human DGAT2 (hDGAT2) at multiplicity of infection (MOI) 3 for 48 hours, cells were harvested. Cell pellets were suspended in buffer containing 10 mM Tris-HCl pH 7.5, 1 mM EDTA, 250 mM sucrose and Complete Protease Inhibitor Cocktail (Sigma Aldrich), and sonicated on ice. Cell debris were removed by centrifugation at 2000×g for 15 minutes. Membrane fractions were isolated by ultracentrifugation (100,000×g), resuspended in the same buffer, and frozen (−80° C.) for later use. The protein concentration was determined with the Pierce™ BCA Protein Assay Kit (Thermo Fisher Scientific). Expression of protein levels was analyzed by immunoblotting with rabbit anti-DGAT2 antibody (Abcam, ab102831) and donkey anti-rabbit IgG H&L Alexa Fluor® 647 (Abcam, ab150075) followed by detection using Typhoon FLA9000 (GE Healthcare).
Chain of human DGAT2 (hDGAT2) (Q96PD7 whole entry): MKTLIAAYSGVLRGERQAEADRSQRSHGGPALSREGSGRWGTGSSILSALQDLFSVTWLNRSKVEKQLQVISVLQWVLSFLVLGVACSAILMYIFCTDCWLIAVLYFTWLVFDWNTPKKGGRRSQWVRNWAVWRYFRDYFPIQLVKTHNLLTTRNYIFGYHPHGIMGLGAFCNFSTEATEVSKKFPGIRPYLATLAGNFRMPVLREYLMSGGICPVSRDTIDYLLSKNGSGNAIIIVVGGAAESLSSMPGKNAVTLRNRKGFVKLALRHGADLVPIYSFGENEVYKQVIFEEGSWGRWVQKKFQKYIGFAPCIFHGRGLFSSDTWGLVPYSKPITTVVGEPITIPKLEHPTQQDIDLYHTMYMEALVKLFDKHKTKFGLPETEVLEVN
LC/MS/MS analyses were performed using Thermal Fisher's LX4-TSQ Vantage system. This system consists of an Agilent binary high-performance liquid chromatography (HPLC) pumps and a TSQ Vantage triple quadrupole MS/MS instrument. For each sample, 2 μL samples from the top organic layer of in-plate liquid-liquid extraction were injected onto a Thermo Betabasic C4 column (2.1 mm×20 mm, 5 μm particle size). The samples were then eluted using the following conditions; mobile phase: Isopropanol:acetonitrile/10 mM ammonium formate=50/35/15 (v/v/v), flow rate: 0.8 mL/min, temperature: 25° C. Data was acquired in positive mode using a heated electrospray ionization (HESI) interface. The operational parameters for the TSQ Vantage MS/MS instrument were a spray voltage of 3000 V, capillary temperature of 280° C., vaporizer temperature 400° C., sheath gas 45 arbitrary unit, Aux gas 10 arbitrary units, S-lens 165 and collision gas 1.0 mTorr. […] (SRM) chromatograms of ^13C18-triolein (Q1: 920.8>Q3:621.3) and internal standard ^13C21-triolein (Q1: 923.8>Q3:617.3) were collected for 33 sec. The peak area was integrated by Xcalibur Quan software. The ratio between the ^13C18triolein generated in the reaction and spiked in internal standard ^13C21-triolein was used to generate percentage inhibition and IC50 values. Compound percentage inhibition was calculated by the following formula: Inhibition %=1-[(compound response−low control)/(high control−low control)]×100%. Potent compounds were titrated and IC50 were calculated by 4 parameter sigmoidal curve fitting formula.
DGAT2 activity was determined by measuring the amount of enzymatic product ^13C18-triolein (^13C-1,2,3-Tri(cis-9-octadecenoyl)glycerol) using the membrane prep mentioned above. The assay was carried out in ABgene 384-well assay plates in a final volume of 25 μL at rt. The assay mixture contained the following: assay buffer (100 mM Tris·Cl, pH 7.0, 20 mM MgCl2, 5% ethanol), 25 μM of diolein, 5 μM of ^13C oleoyl-CoA and 8 ng/μL of DGAT2 membrane.
On to `CC1(C#N)CC(n2nc(-c3cccc(OC(F)F)c3)c3ncc(C(=O)NC4(C)CS(=O)(=O)C4)cc32)C1` (single isomer, unassigned) [Example 87b, 1-(3-cyano-3-methylcyclobutyl)-3-(3-(difluoromethoxy)phenyl)-N-(3-methyl-1,1-dioxidothietan-3-yl)-1H-pyrazolo[4,3-b]pyridine-6-carboxamide], for which the half-inhibitory concentration (IC50) is 270 nM.
On the same count and under the same terms, in the case of `C[C@]1(NC(=O)c2cnc3c(-c4cccc(OC(F)F)c4)nn(-c4ccc(F)cc4)c3c2)CCS(=O)(=O)C1` [Example 1, (S)-3-(3-(difluoromethoxy)phenyl)-1-(4-fluorophenyl)-N-(3-methyl-1,1-dioxidotetrahydrothiophen-3-yl)-1H-pyrazolo[4,3-b]pyridine-6-carboxamide] it was 0.8 nM; in that of `O=C(N[C@@H]1CCC[C@H]1N1CCOCC1)c1cnc2c(-c3cccc(OC(F)F)c3)cn(-c3ncc(F)cn3)c2c1` [Example 7, 3-(3-(difluoromethoxy)phenyl)-1-(5-fluoropyrimidin-2-yl)-N-((1R,2R)-2-morpholinocyclopentyl)-1H-pyrrolo[3,2-b]pyridine-6-carboxamide], 45 nM; in that of `C[C@]1(NC(=O)c2cnc3c(-c4cccc(OC(F)F)c4)cn(-c4ccc(F)cc4)c3c2)CCS(=O)(=O)C1` [Example 9, (S)-3-(3-(difluoromethoxy)phenyl)-1-(4-fluorophenyl)-N-(3-methyl-1,1-dioxidotetrahydrothiophen-3-yl)-1H-pyrrolo[3,2-b]pyridine-6-carboxamide], 6.8 nM.
Regarding `N[C@H]1CCC[C@H]1NC(=O)c1cnc2c(-c3cccc(OC(F)F)c3)cn(-c3ncc(F)cn3)c2c1` [Example 20, N-((1R,2S)-2-aminocyclopentyl)-3-(3-(difluoromethoxy)phenyl)-1-(5-fluoropyrimidin-2-yl)-1H-pyrrolo[3,2-b]pyridine-6-carboxamide], the IC50 is 189 nM.
The same measure, in the same setting: then `C[C@]1(NC(=O)c2cnc3c(-c4cccc(OC(F)F)c4)cn(-c4ccc(F)cc4)c3n2)CCS(=O)(=O)C1` [Example 24, (S)-7-(3-(difluoromethoxy)phenyl)-5-(4-fluorophenyl)-N-(3-methyl-1,1-dioxidotetrahydrothiophen-3-yl)-5H-pyrrolo[2,3-b]pyrazine-3-carboxamide], with 50 nM; and `CC(C)n1nc(-c2cccc(OC(F)F)c2)c2ncc(C(=O)NC3(C)CS(=O)(=O)C3)cc21` [Example 25, 3-[3-(difluoromethoxy)phenyl]-1-isopropyl-N-(3-methyl-1,1-dioxidothietan-3-yl)-1H-pyrazolo[4,3-b]pyridine-6-carboxamide], with 4.7 nM.
For `CC(C)n1cc(-c2cccc(OC(F)F)c2)c2ncc(C(=O)NC3(C)CS(=O)(=O)C3)cc21` [Example 37, 3-(3-(difluoromethoxy)phenyl)-1-isopropyl-N-(3-methyl-1,1-dioxidothietan-3-yl)-1H-pyrrolo[3,2-b]pyridine-6-carboxamide], the IC50 was 50 nM.
The same measure, in the same setting: in the case of `CC(C)n1nc(-c2cccc(OC(F)F)c2)c2ncc(C(=O)NC(C)(C)CO)cc21` [Example 42, 3-(3-(difluoromethoxy)phenyl)-N-(1-hydroxy-2-methylpropan-2-yl)-1-isopropyl-1H-pyrazolo[4,3-b]pyridine-6-carboxamide] it was 38 nM; in that of `CCOc1cc(-c2nn(C(C)C)c3cc(C(=O)NC4(C)CS(=O)(=O)C4)cnc23)c(F)cn1` [Example 126, 3-(2-ethoxy-5-fluoropyridin-4-yl)-1-isopropyl-N-(3-methyl-1,1-dioxidothietan-3-yl)-1H-pyrazolo[4,3-b]pyridine-6-carboxamide], 27 nM.
As for `CC(C)n1nc(-c2cccc(C3(O)CC3)c2)c2ncc(C(=O)NC3(C)CS(=O)(=O)C3)cc21` [Example 127, 3-(3-(1-Hydroxycyclopropyl)phenyl)-1-isopropyl-N-(3-methyl-1,1-dioxidothietan-3-yl)-1H-pyrazolo[4,3-b]pyridine-6-carboxamide], the 50% inhibitory concentration (IC50) amounted to 298 nM.

The same test, now with this note: table head without 'Human'; same membrane assay; read-out: DGAT2 IC50.
Regarding `CC(n1nc(-c2cccc(OC(F)F)c2)c2ncc(C(=O)NC3(C)CS(=O)(=O)C3)cc21)C(C)(C)O` (single isomer, unassigned) [Example 130a, 3-(3-(difluoromethoxy)phenyl)-1-(3-hydroxy-3-methylbutan-2-yl)-N-(3-methyl-1,1-dioxidothietan-3-yl)-1H-pyrazolo[4,3-b]pyridine-6-carboxamide], the half-maximal inhibitory concentration (IC50) was found to be 2.8 nM.
On to `CC(n1nc(-c2cccc(OC(F)F)c2)c2ncc(C(=O)NC3(C)CS(=O)(=O)C3)cc21)C(C)(C)O` (single isomer, unassigned) [Example 130b, 3-(3-(difluoromethoxy)phenyl)-1-(3-hydroxy-3-methylbutan-2-yl)-N-(3-methyl-1,1-dioxidothietan-3-yl)-1H-pyrazolo[4,3-b]pyridine-6-carboxamide], for which the IC50 turned out to be 80 nM.
Same read-out and setting: then `CC(n1nc(-c2cc(OC(F)F)ccc2F)c2ncc(C(=O)NC3(C)CS(=O)(=O)C3)cc21)C(C)(C)O` (single isomer, unassigned) [Example 131a, 3-(5-(difluoromethoxy)-2-fluorophenyl)-1-(3-hydroxy-3-methylbutan-2-yl)-N-(3-methyl-1,1-dioxidothietan-3-yl)-1H-pyrazolo[4,3-b]pyridine-6-carboxamide], with 11 nM.
On the same count and under the same terms, in the case of `CC(n1nc(-c2cc(OC(F)F)ccc2F)c2ncc(C(=O)NC3(C)CS(=O)(=O)C3)cc21)C(C)(C)O` (single isomer, unassigned) [Example 131b, 3-(5-(difluoromethoxy)-2-fluorophenyl)-1-(3-hydroxy-3-methylbutan-2-yl)-N-(3-methyl-1,1-dioxidothietan-3-yl)-1H-pyrazolo[4,3-b]pyridine-6-carboxamide] it was 110 nM; in that of `CC(n1nc(-c2cc(OC(F)(F)F)ccc2F)c2ncc(C(=O)NC3(C)CS(=O)(=O)C3)cc21)C(C)(C)O` (single isomer, unassigned) [Example 132a, 3-(2-fluoro-5-(trifluoromethoxy)phenyl)-1-(3-hydroxy-3-methylbutan-2-yl)-N-(3-methyl-1,1-dioxidothietan-3-yl)-1H-pyrazolo[4,3-b]pyridine-6-carboxamide], 231 nM; in that of `CC(n1nc(-c2cc(OC(F)(F)F)ccc2F)c2ncc(C(=O)NC3(C)CS(=O)(=O)C3)cc21)C(C)(C)O` (single isomer, unassigned) [Example 132b, 3-(2-fluoro-5-(trifluoromethoxy)phenyl)-1-(3-hydroxy-3-methylbutan-2-yl)-N-(3-methyl-1,1-dioxidothietan-3-yl)-1H-pyrazolo[4,3-b]pyridine-6-carboxamide], 215 nM.
Take `CC(n1nc(-c2cc(OC(F)F)ncc2F)c2cnc(C(=O)NC3(C)CS(=O)(=O)C3)cc21)C(C)(C)O` (single isomer, unassigned) [Example 133a, 3-(2-(difluoromethoxy)-5-fluoropyridin-4-yl)-1-(3-hydroxy-3-methylbutan-2-yl)-N-(3-methyl-1,1-dioxidothietan-3-yl)-1H-pyrazolo[4,3-c]pyridine-6-carboxamide]: the IC50 was found to be 862 nM.
Still for that read-out and setting: then `CC(n1nc(-c2cc(OC(F)F)ncc2F)c2cnc(C(=O)NC3(C)CS(=O)(=O)C3)cc21)C(C)(C)O` (single isomer, unassigned) [Example 133b, 3-(2-(difluoromethoxy)-5-fluoropyridin-4-yl)-1-(3-hydroxy-3-methylbutan-2-yl)-N-(3-methyl-1,1-dioxidothietan-3-yl)-1H-pyrazolo[4,3-c]pyridine-6-carboxamide], with 15 nM.
